Results on two compounds are retold here after patent publication US20190358371A1, “HEMOSTATIC DEVICES AND METHODS OF USE” (priority 2016, published 2019).

Series [1] is described as follows: stability of rifampin and minocycline in PBS with and without tranexamic acid (Example 14). In kind it is physicochemical. Conditions: room temperature (about 23 C) and 37 C.
A short description of series [2]: in vitro elution of rifampin and minocycline from p22-27.5 polymers with TXA in release media (Example 15). The class given is physicochemical. The conditions noted are these: PBS pH 7.4, TXA 0, 0.05 or 5 mg/mL, over 25 hours. How it is done: B1=PBS pH 7.4; B2=PBS, pH 7.4+TXA (0.05 mg/mL); B3=PBS, pH 7.4+TXA (5 mg/mL).
The next series has as its system blood. Nature of the series: time required to induce blood clotting in vitro (Examples 17 and 18). The class given is biochemical. How it is done:
Tests were conducted to compare the time required to induce blood clotting in vitro when different amounts of hemostatic agent is administered in the presence of TYRX (degradable mesh coated with P22-27.5 containing rifampin and minocycline), as shown in FIG. 35.
Tests were conducted to compare the time required for different hemostatic agents to induce blood clotting in vitro versus the time required to induce blood clotting in vitro when no hemostatic agent is administered. In particular, the time required to induce blood clotting was plotted for blood alone, TYRX), Surgicel, TYRX with 1.6 mg of TXA, 1.2 mg of TXA alone and TYRX with 200 mg of TXA. In this example, TYRX refers to a Glycoprene mesh that is coated with P22-27.5 (a polymer in the P22-X family) containing Rifampin and Minocycline.

The conditions of series [3]: given preoperatively; cited from earlier work.

Take `CO[C@H]1/C=C/O[C@@]2(C)Oc3c(C)c(O)c4c(O)c(c(/C=N/N5CCN(C)CC5)c(O)c4c3C2=O)NC(=O)/C(C)=C\C=C\[C@H](C)[C@H](O)[C@@H](C)[C@@H](O)[C@@H](C)[C@H](OC(C)=O)[C@@H]1C` [rifampin]: the “percentage area in mixtures of rifampin and minocycline in PBS with versus without tranexamic acid” value in series [1] is “substantially the same”. The “elution rate from p22-27.5 polymer, effect of TXA in the release media” value in series [2] is recorded as “not affected”.
For the compound `NC[C@H]1CC[C@H](C(=O)O)CC1` [tranexamic acid], in the series with blood (1.2 mg of TXA alone), the “time required to induce blood clotting in vitro” value is reported as “about 19 minutes”. In addition, in the series on blood (1.6 mg TXA vs 200 mg of TXA, in the presence of TYRX), the “Clotting time with higher amounts of TXA” value was “increased”. Also, the “time to reach plasma concentrations” value in series [3] was 5 to 15 min.
